Data taken from PubChem BioAssay (NCI).
Several values for one entry are separate records, joined by “and”; a condition that tells them apart may be missing. Equal values may be shown once.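 Following 48 hours of exposure in 96-well plates, responses at five concentrations were used to interpolate endpoints linearly. At the GI50, growth is halved. TGI is the concentration that stops growth completely.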

Assays:
Assay in all cases: NCI-60 cell line screen, 48 h
SF-295 CNS = test system: SF-295 CNS
MDA-MB-231 breast = test system: MDA-MB-231 breast
HL-60(TB) leukemia = test system: HL-60(TB) leukemia
ACHN renal = test system: ACHN renal
MDA-MB-435 = test system: MDA-MB-435
SK-MEL-28 melanoma = test system: SK-MEL-28 melanoma
LOX IMVI melanoma = test system: LOX IMVI melanoma
SF-268 CNS = test system: SF-268 CNS
EKVX NSCLC = test system: EKVX NSCLC
CCRF-CEM leukemia = test system: CCRF-CEM leukemia

Row | Compound | TGI (SF-295 CNS) | TGI (MDA-MB-231 breast) [µM] | TGI (HL-60(TB) leukemia) [µM] | TGI (ACHN renal) | TGI (MDA-MB-435) [µM] | TGI (SK-MEL-28 melanoma) | TGI (LOX IMVI melanoma) [µM] | TGI (SF-268 CNS) [µM] | TGI (EKVX NSCLC) [µM] | TGI (CCRF-CEM leukemia) [µM] | GI50 (SF-268 CNS) [µM]
1 | CC(C)(C)OC(=O)NC(Cc1ccc([N+](=O)[O-])cc1)C(=O)NC(CCCCNC(=O)OCc1ccccc1)C(=O)ON1C(=O)CCC1=O (centres undefined) | > 100 µM | > 100 | > 100 | > 100 µM | > 100 | > 100 µM | > 100 | > 100 | > 100 |  | 
2 | Cc1ccc2[nH]c3c(C)c4ccncc4c(C)c3c2c1 | 2.32 µM |  | 3.42 | 2.28 µM |  | 3.47 µM | 4.77 | 2.11 | 2.5 | 3.74 | 
3 | COc1ccc2c(c1)CC[C@@H]1C2CC[C@]2(C)C(=O)NC(=O)CC12 (some centres undefined) | > 100 µM |  | > 100 | > 100 µM |  |  | > 100 | > 100 | > 100 | > 100 | 
4 | CSc1c(C#N)c2n(c3ccccc3[n+]2C)c2ncccc12 | > 100 µM | 46.9 |  | > 100 µM | > 100 | 49.1 µM | 34.1 | 86.9 | 50.5 | > 100 | 
5 | CCN(CC)CCCNC(=O)Cc1ccccc1Nc1c(Cl)cccc1Cl | 32.7 µM |  | 27.5 | 20.8 µM |  | 25.4 µM | 25.6 | 31.2 | 28.2 | 28.2 | 
6 | CC(=O)c1cccc(NC2C(N)C(NC(=O)N(C)C)(C(C)O)C(C)(O)C2(O)COC(=O)c2c(C)cccc2O)c1 (centres undefined) | 0.164 µM and 0.231 µM | 0.208 | < 0.001 | 0.334 µM and 0.539 µM | 0.0157 | 1.04 µM and 0.532 µM |  |  | 0.08 | 0.205 | < 0.001
7 | C[C@@H]1CCC2[C@@H](C)C(=O)O[C@@H]3C4C[C@@H]1[C@@]23OO[C@@]4(C)O (some centres undefined) | > 100 µM | > 100 |  | > 100 µM | > 100 | > 100 µM | 62.7 | > 100 | > 100 | > 100 | 
8 | Cc1ccc(/C=N/Nc2ncccn2)s1 | > 100 µM | > 100 |  | > 100 µM | > 100 | > 100 µM | > 100 | > 100 | > 100 | > 100 | 
9 | COc1ccc(C2S/C(=C\c3ccc(OC)cc3OC)C(=O)N2NC(=O)Cc2ccccc2)cc1 (centres undefined) | > 100 µM |  | > 100 | > 100 µM |  |  | > 100 | > 100 |  | > 100 | 
10 | Cc1nc(-c2nc([N+](=O)[O-])c([N+](=O)[O-])[nH]2)cs1 | > 100 µM |  | > 100 | > 100 µM |  | > 100 µM | > 100 | > 100 | > 100 | > 100 | 
11 | CC12ON=C(c3ccccc3)N1C=CN1C(c3ccccc3)=NOC12 (centres undefined) | > 100 µM | > 100 |  | > 100 µM |  |  | > 100 | > 100 | > 100 |  | 
12 | C=C(Cl)C(Cl)(CBr)CCC(Cl)C(C)(C)Cl (centres undefined) | 7.73 µM | 5.83 |  | 3.9 µM | 8.21 | 3.8 µM | 28 | 2.92 | 20.9 | 29.2 | 
13 | COc1cc2c(cc1OC)C(Cl)C(c1cc(OC)c(OC)c(OC)c1)=C2Cl (centres undefined) | 29.9 µM |  | 44.3 | 28.8 µM |  | 31.9 µM | 30.2 | 55.7 | 79.4 | 40.7 | 
14 | O=C(/C=C/c1ccc(O)c(O)c1)OCCOC(=O)/C=C/c1ccc(O)c(O)c1 | 44.1 µM | > 100 |  | 85.8 µM | 98 | > 100 µM | 93.3 | > 100 | 83.1 | > 100 | 
15 | CSCCC(NC(c1ccccc1)c1ccccc1)[P+](=O)O (centres undefined) | > 100 µM |  | > 100 | > 100 µM | > 100 | > 100 µM | > 100 | > 100 | > 100 | > 100 | 
16 | CC1=C(C(=O)OC(C)C)C(c2ccccc2[N+](=O)[O-])C(C(=O)OC(CO[N+](=O)[O-])CO[N+](=O)[O-])=C(C)N1 (centres undefined) | 6.95 µM | 35.4 | > 100 | 23.7 µM | 13.2 | 17.9 µM | 11.3 | 16.8 | 18.8 |  | 
17 | Cc1cc(=Nc2ccc3c(c2)c(N)cc(C)[n+]3C)nc(N)n1C | > 100 µM | > 100 |  | > 100 µM | > 100 | > 100 µM | > 100 | > 100 | > 100 | > 100 | 
18 | CCN(CC)CCNc1ccc(C)c2sc3ccc(O)cc3c(=O)c12 | 1.98 µM |  | 0.979 | 1.63 µM |  | 2.96 µM | 2.18 | 7.93 | 25.9 | 1.06 | 
